# Laboratory results: patent publication US20050192227A1, “Method for reducing the risk of cancer” (priority 1999, published 2005)
# What was measured:
# MCF-7 = conditions: ER+ breast cancer cell line MCF-7, in vitro; cited from earlier work
# biochemical bone markers = assay: Applicant's dose studies in human subjects: changes in biochemical bone markers; assay type: in vivo
# Procedure: (§1) Therefore, for reducing risk on cancer in men or women with hPTH(1-34) according to the present invention, preferably one should use a daily dose greater than about 6 μg, more preferably at least about 15 μg. […] Therefore, any daily dose of hPTH(1-34) in the range of greater than about 6 μg to at least about 40 μg would be effective for reduction of the risk of cancer, according to the present method of using this form of parathyroid hormone. […] Accordingly, the present invention provides a method for reducing the risk of cancer in a human subject at risk thereof, comprising administering to the subject a parathyroid hormone. Preferably, the parathyroid hormone consists of amino acid sequence 1-34 of human parathyroid hormone. This hormone may be administered with or without concurrent administration of an antiresorptive agent other than vitamin D or calcium. Preferably, the hormone is administered in a daily dose in the range of about 15 μg to about 40 μg, for at least about 12 months. In this method for reducing the risk of cancer, the hormone may be administered for longer periods of several years (e.g., up to 3 years as in osteoporotic patients), including for the remaining life of a human subject identified as having a high risk of cancer.
# detectable tumors = assay: Clinical trial of rhPTH(1-34) in postmenopausal women: incidence of cancer (patients with detectable tumors); assay type: in vivo, human; conditions: for number of patients with detectable tumors, breast carcinoma: 17-23 months, placebo 7; for number of patients with detectable tumors, skin carcinoma: placebo 5; for number of patients with detectable tumors, all cancers except breast carcinoma: placebo 16; for number of patients with detectable tumors, all cancers: placebo 21
# Procedure: • Number of Subjects: rhPTH(1-34): 1093 enrolled, 848 finished. • Placebo: 544 enrolled, 447 finished. • Diagnosis and Inclusion Criteria: Women ages 30 to 85 years, postmenopausal for a minimum of 5 years, with a minimum of one moderate or two mild atraumatic vertebral fractures. • Dosage and Administration: Test Product (blinded) • rhPTH(1-34): 20 μg/day, given subcutaneously • rhPTH(1-34): 40 μg/day, given subcutaneously • Reference Therapy (blinded) • Placebo study material for injection • Duration of Treatment: rhPTH(1-34): 17-23 months (excluding 6-month run-in phase) • Placebo: 17-23 months (excluding 6-month run-in phase)
# Criteria for Evaluation: Spine x-ray; serum biological markers (calcium, bon-specific alkaline phosphatase, procollagen I carboxy-terminal propeptide); urine markers (calcium, N-telopeptide, free deoxypyridinoline); 1,25-dihydroxyvitanin D; bone mineral density: spine, hip, wrist, and total body; height; population pharmacokinetics; bone biopsy (selected study sites).
# Table 1 illustrates data showing the reduction in the number of patients having detectable tumors upon treatment with PTH.
# [1] = Effectiveness of daily doses against osteoporosis in men and women; assay type: in vivo, human; conditions: daily doses of 20 μg and 40 μg compared
# [2] = Undesirable side effects of daily doses in human subjects; assay type: in vivo; conditions: daily dose of about 20 μg compared with about 40 μg
# Procedure: as §1
Substance,response of MCF-7 cells to PTHrP (MCF-7),"lowest tested dose found to be biologically active, as indicated by detectable changes in biochemical bone markers (biochemical bone markers)",effects on biochemical bone markers (biochemical bone markers; 6 μg dose),"number of patients with detectable tumors, breast carcinoma (detectable tumors; PTH-20 (20 μg/day s.c., N = 541), p=0.017)","number of patients with detectable tumors, skin carcinoma (detectable tumors; PTH-20 (20 μg/day s.c., N = 541), p=0.532)","number of patients with detectable tumors, all cancers except breast carcinoma (detectable tumors; PTH-20 (20 μg/day s.c., N = 541))","number of patients with detectable tumors, all cancers (detectable tumors; PTH-20 (20 μg/day s.c., N = 541), p=0.03)","number of patients with detectable tumors, breast carcinoma (detectable tumors; PTH-40 (40 μg/day s.c., N = 522), p=0.017)","number of patients with detectable tumors, skin carcinoma (detectable tumors; PTH-40 (40 μg/day s.c., N = 522), p=0.532)","number of patients with detectable tumors, all cancers except breast carcinoma (detectable tumors; PTH-40 (40 μg/day s.c., N = 522))","number of patients with detectable tumors, all cancers (detectable tumors; PTH-40 (40 μg/day s.c., N = 522), p=0.03)","percentage of patients with any form of detectable cancer (detectable tumors; all PTH-treated patients (20 and 40 μg/day pooled) vs. placebo 3.86%, p=0.03) [%]","percentage of patients with skin carcinoma (detectable tumors; all PTH-treated patients pooled vs. placebo 0.919%, p=0.532) [%]","percentage of patients with breast carcinoma (detectable tumors; all PTH-treated patients pooled vs. placebo 1.29%, p=0.017) [%]","percentage of patients with any form of detectable cancer, excluding breast carcinoma (detectable tumors; all PTH-treated patients pooled vs. placebo 2.94%) [%]",effectiveness against osteoporosis [1],undesirable side effects [2]
PTHrP: PTH-related peptide/protein,proliferates,–,–,–,–,–,–,–,–,–,–,–,–,–,–,–,–
rhPTH(1-34),–,about 15 μg,no significant effects,1,2,7,8,1,4,10,11,1.79,0.564,0.188,1.60,similarly effective,fewer undesirable side effects
